The record followed here is PubChem BioAssay (NCI).

Some test systems named below: 786-0 renal; BT-549 breast; CAKI-1 renal; CCRF-CEM leukemia; EKVX NSCLC; HOP-62 NSCLC; HS 578T breast; M14 melanoma; MALME-3M melanoma; MOLT-4 leukemia; OVCAR-4 ovarian; PC-3 prostate; RPMI-8226 leukemia; SF-295 CNS; SF-539 CNS; SK-MEL-2 melanoma; SK-MEL-5 melanoma; SW-620 colon; UACC-257 melanoma; MDA-N.
Common to all, as to assay: growth of human tumour cells (NCI), 48 h

Structures are written as SMILES.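 Where inhibition never reached the appropriate level, the endpoint shown equals the highest concentration tested. Otherwise, values were interpolated linearly from a five-concentration, 48-hour dose response in 96-well plates. TGI is the concentration that stops growth completely.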

With `COc1ccc(C[C@@H](C(=O)O[C@H](C)[C@H](NC(=O)[C@@H](CC(C)C)N(C)C(=O)C2CCCN2C(=O)[C@H](C)O)C(=O)N2CCCCNC(=O)[C@@H](C)C(=O)[C@H](C(C)C)OC(=O)C[C@H](O)[C@H]2CC(C)C)N(C)C(C)=O)cc1` (stereo not given in full), the TGI with 786-0 renal was > 50 µM; with BT-549 breast, > 50 µM; in the assay with CAKI-1 renal, 41.6 µM; with CCRF-CEM leukemia, 26.1 µM; with EKVX NSCLC, 37.1 µM; in the assay with HOP-62 NSCLC, > 50 µM. The TGI in the assay with HS 578T breast was 34.8 µM; in the assay on M14 melanoma, > 50 µM; in the assay with MALME-3M melanoma it was 49.1 µM; in the assay with MOLT-4 leukemia, 35.2 µM; with OVCAR-4 ovarian, > 50 µM; with PC-3 prostate it was > 50 µM. Further, the TGI was 26.8 µM with RPMI-8226 leukemia; > 50 µM in the assay on SF-295 CNS; 17.1 µM with SF-539 CNS; > 50 µM with SK-MEL-2 melanoma; 34.1 µM in the assay on SK-MEL-5 melanoma; 28.4 µM in the assay on SW-620 colon. Besides, the TGI with UACC-257 melanoma is > 50 µM.

`CNC(=O)CCCNC(=O)CCCCC(=O)N(C)C`: the TGI in the assay on 786-0 renal, with CAKI-1 renal, with HOP-62 NSCLC, in the assay on M14 melanoma, with MALME-3M melanoma and in the assay on MDA-N was > 100 µM each time. Further, the TGI in the assay on MOLT-4 leukemia, in the assay on OVCAR-4 ovarian, with PC-3 prostate, in the assay with RPMI-8226 leukemia, in the assay on SF-295 CNS and in the assay on SF-539 CNS was > 100 µM in each case. Moreover, the TGI in the assay on SK-MEL-2 melanoma, in the assay on SK-MEL-5 melanoma and in the assay with SW-620 colon was > 100 µM each time.

For `O=c1[nH]nc(-c2ccccc2)n1-c1cccc([N+](=O)[O-])c1`, the TGI in the assay on 786-0 renal, in the assay on CAKI-1 renal, in the assay on CCRF-CEM leukemia, in the assay with EKVX NSCLC, in the assay with HOP-62 NSCLC and in the assay with HS 578T breast was > 100 µM throughout. Besides, the TGI with M14 melanoma, in the assay with MALME-3M melanoma, in the assay with MDA-N, in the assay on MOLT-4 leukemia, in the assay with OVCAR-4 ovarian and in the assay with RPMI-8226 leukemia was > 100 µM each time. The TGI in the assay on SF-295 CNS, with SF-539 CNS, in the assay on SK-MEL-2 melanoma, in the assay with SK-MEL-5 melanoma, with SW-620 colon and in the assay with UACC-257 melanoma was > 100 µM each time.

`CNn1c(-c2ccc(C)cc2)n[nH]c1=O`: the TGI in the assay with 786-0 renal, in the assay with BT-549 breast, with CAKI-1 renal, in the assay on CCRF-CEM leukemia, with EKVX NSCLC and in the assay on HOP-62 NSCLC was > 100 µM throughout. In addition, the TGI in the assay on HS 578T breast, with M14 melanoma, with MALME-3M melanoma, in the assay with MOLT-4 leukemia, with OVCAR-4 ovarian and in the assay on PC-3 prostate was > 100 µM throughout. Also, the TGI in the assay on RPMI-8226 leukemia, in the assay with SF-295 CNS, in the assay on SF-539 CNS, in the assay on SK-MEL-2 melanoma, in the assay with SK-MEL-5 melanoma and with SW-620 colon was > 100 µM in each case. In addition, the TGI with UACC-257 melanoma is > 100 µM.

Regarding `CCOC(=O)c1csc(C(CSCc2ccc(OC)cc2)N2C(=O)c3ccccc3C2=O)n1` (stereo not given), the TGI with 786-0 renal, in the assay with BT-549 breast, in the assay with CAKI-1 renal, with CCRF-CEM leukemia, with EKVX NSCLC and in the assay with HOP-62 NSCLC was > 100 µM in each case. Besides, the TGI in the assay on HS 578T breast, in the assay with M14 melanoma, in the assay with MALME-3M melanoma, in the assay on MOLT-4 leukemia, with OVCAR-4 ovarian and in the assay on PC-3 prostate was > 100 µM each time. In addition, the TGI with RPMI-8226 leukemia, with SF-295 CNS, in the assay with SF-539 CNS, with SK-MEL-5 melanoma, in the assay on SW-620 colon and in the assay with UACC-257 melanoma was > 100 µM in each case.

For the compound `CC(=O)N1C(=O)c2cc3ccccc3cc21`, the TGI with 786-0 renal, in the assay with CCRF-CEM leukemia, in the assay on EKVX NSCLC, with HOP-62 NSCLC, in the assay on HS 578T breast and in the assay on M14 melanoma was > 100 µM throughout. The TGI in the assay with MDA-N, in the assay with PC-3 prostate, in the assay with RPMI-8226 leukemia, with SF-539 CNS, in the assay on SK-MEL-2 melanoma and in the assay on SK-MEL-5 melanoma was > 100 µM throughout. The TGI in the assay on SW-620 colon was > 100 µM.

Turning to `COC(=O)CSc1nc2[nH]c(SC)c(C(N)=O)c2c(=O)n1-c1ccccc1`, the TGI with 786-0 renal, in the assay with CAKI-1 renal, in the assay with CCRF-CEM leukemia, with EKVX NSCLC, in the assay on HOP-62 NSCLC and with M14 melanoma was > 10 µM each time. The TGI with MALME-3M melanoma, in the assay with MDA-N, in the assay with MOLT-4 leukemia, with OVCAR-4 ovarian, in the assay with PC-3 prostate and with RPMI-8226 leukemia was > 10 µM in each case. Also, the TGI with SF-295 CNS, with SK-MEL-5 melanoma, with SW-620 colon and in the assay with UACC-257 melanoma was > 10 µM each time.

As to `COc1cc2c(c(OC)c1OC)C(=O)[C@@H](O)[C@H]2NC(N)=O`, the TGI in the assay with 786-0 renal, in the assay on CAKI-1 renal, in the assay on CCRF-CEM leukemia, with EKVX NSCLC, with HOP-62 NSCLC and in the assay on HS 578T breast was > 100 µM throughout. For the same compound, the TGI in the assay with M14 melanoma, in the assay on MALME-3M melanoma, in the assay on MDA-N, with MOLT-4 leukemia, in the assay with PC-3 prostate and with RPMI-8226 leukemia was > 100 µM each time. Also, the TGI in the assay on SF-295 CNS, with SF-539 CNS, in the assay on SK-MEL-5 melanoma, in the assay on SW-620 colon and in the assay on UACC-257 melanoma was > 100 µM throughout.
